Measurements published in patent US20070043024A1, “Azacyclic compounds as inhibitors of sensory neurone specific channels” (priority 2003, published 2007).

The molecules below were run against T1, human Nav1.8 (hNav1.8) ion channel (Homo sapiens, UniProt Q9Y5Y9) (assay: Inhibition of human Nav1.8 stably expressed in SH-SY-5Y cells (membrane potential dye fluorescence assay)). Conditions: Table 2 (compound numbers of the list in the description); SH-SY-5Y hNav1.8 cells, inhibition of membrane depolarisation, FLIPR membrane potential dye, 250 nM TTX, test concentration range 100 μM-0.05 μM; read-out: IC50.
T1 construct: expressed in transfected cells
T1 sequence (Q9Y5Y9 whole entry): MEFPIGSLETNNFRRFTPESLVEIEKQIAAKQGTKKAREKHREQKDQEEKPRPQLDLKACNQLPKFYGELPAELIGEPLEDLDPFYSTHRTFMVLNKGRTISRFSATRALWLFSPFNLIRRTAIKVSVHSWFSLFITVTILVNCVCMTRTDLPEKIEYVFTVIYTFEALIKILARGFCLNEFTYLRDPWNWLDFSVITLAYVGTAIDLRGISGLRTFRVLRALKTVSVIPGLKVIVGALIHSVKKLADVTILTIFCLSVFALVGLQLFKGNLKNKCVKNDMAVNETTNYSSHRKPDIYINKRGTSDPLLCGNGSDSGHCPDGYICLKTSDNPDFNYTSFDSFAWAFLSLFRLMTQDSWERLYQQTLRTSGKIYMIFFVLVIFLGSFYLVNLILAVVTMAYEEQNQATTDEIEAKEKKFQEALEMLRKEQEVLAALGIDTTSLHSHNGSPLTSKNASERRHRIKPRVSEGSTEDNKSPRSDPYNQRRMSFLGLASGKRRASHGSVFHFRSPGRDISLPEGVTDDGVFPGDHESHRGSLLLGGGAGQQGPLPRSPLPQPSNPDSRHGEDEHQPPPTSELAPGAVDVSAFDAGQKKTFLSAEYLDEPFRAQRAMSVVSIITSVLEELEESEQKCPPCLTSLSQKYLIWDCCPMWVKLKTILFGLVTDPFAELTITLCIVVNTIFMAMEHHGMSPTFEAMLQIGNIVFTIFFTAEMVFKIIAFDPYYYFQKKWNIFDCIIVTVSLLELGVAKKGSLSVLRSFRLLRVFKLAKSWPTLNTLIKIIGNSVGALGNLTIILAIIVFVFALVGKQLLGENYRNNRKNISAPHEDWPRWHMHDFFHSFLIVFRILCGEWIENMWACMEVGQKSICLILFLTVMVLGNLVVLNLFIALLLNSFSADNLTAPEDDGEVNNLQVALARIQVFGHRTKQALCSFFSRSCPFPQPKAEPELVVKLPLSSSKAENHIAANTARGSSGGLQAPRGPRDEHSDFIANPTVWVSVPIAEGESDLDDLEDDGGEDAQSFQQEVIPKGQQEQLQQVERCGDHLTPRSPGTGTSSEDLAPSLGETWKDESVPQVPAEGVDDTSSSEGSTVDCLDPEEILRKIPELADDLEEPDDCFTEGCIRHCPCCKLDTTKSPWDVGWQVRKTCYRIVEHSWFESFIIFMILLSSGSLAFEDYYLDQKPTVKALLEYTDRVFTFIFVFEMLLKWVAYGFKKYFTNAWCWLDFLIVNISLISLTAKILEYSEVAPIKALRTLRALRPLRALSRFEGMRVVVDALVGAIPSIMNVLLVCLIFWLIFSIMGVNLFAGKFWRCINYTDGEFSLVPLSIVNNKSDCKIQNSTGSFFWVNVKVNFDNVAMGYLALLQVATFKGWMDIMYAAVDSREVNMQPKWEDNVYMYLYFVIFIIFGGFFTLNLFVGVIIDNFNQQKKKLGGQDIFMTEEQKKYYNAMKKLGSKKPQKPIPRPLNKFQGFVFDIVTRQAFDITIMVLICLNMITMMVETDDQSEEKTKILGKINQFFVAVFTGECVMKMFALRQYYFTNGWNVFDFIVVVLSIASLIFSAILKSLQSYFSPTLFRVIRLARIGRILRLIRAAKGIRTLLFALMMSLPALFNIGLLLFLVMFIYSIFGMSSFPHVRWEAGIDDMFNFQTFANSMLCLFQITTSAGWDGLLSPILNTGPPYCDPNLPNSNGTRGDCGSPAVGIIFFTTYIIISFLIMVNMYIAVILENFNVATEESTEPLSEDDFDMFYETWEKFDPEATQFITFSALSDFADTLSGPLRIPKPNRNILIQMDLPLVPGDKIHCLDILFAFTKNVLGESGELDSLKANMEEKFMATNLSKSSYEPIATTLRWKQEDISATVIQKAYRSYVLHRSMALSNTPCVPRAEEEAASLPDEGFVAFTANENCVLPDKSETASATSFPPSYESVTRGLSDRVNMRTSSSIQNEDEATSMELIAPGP
Assay type: cell-based
Work on `COc1cccc2c1CN(CC(=O)Nc1ccccc1Oc1ccccc1)CC2` [Compound 184, 2-(8-Methoxy-3,4-dihydro-1H-isoquinolin-2-yl)-N-(2-phenoxy-phenyl)-acetamide] yielded an IC50 of 10.9 µM. For `O=C(CN1CCc2cccc(O)c2C1)Nc1ccccc1Oc1ccccc1` [Compound 185, 2-(8-Hydroxy-3,4-dihydro-1H-isoquinolin-2-yl)-N-(2-phenoxy-phenyl)-acetamide], the IC50 was 1.85 µM. In the case of `COc1cccc2c1CN(CC(=O)NNC(=O)N(c1ccccc1)c1ccccc1)CC2` [Compound 186, 1-[(8-Methoxy-3,4-dihydro-1H-isoquinolin-2-yl)-acetyl]-4,4-diphenylsemicarbazide], the IC50 is reported as 29.1 µM. For `COc1cccc2c1CN(CC(=O)N1CC(c3nnc(C)o3)Oc3ccccc31)CC2` (centres unmarked) [Compound 187, 2-(8-Methoxy-3,4-dihydro-1H-isoquinolin-2-yl)-1-[2-(5-methyl-[1,3,4]oxadiazol-2-yl)-2,3-dihydro-benzo[1,4]oxazin-4-yl]-ethanone], the IC50 was 19.1 µM. Molecule `COc1cccc2c1CN(CC(=O)N(c1ccccc1O)c1ncccc1N)CC2` [Compound 188, N-(3-Amino-pyridin-2-yl)-N-(2-hydroxy-phenyl)-2-(8-methoxy-3,4-dihydro-1H-isoquinolin-2-yl)-acetamide] has an IC50 of 12 µM. With `COc1cccc2c1CN(CCC(=O)N1c3ccccc3Oc3ccccc31)CC2` [Compound 189, 3-(8-Methoxy-3,4-dihydro-1H-isoquinolin-2-yl)-1-phenoxazin-10-yl-propan-1-one] the IC50 was 0.51 µM. In the case of `O=C(CCN1CCc2cccc(O)c2C1)N1c2ccccc2Oc2ccccc21` [Compound 190, 3-(8-Hydroxy-3,4-dihydro-1H-isoquinolin-2-yl)-1-phenoxazin-10-yl-propan-1-one], the IC50 is reported as 0.53 µM. `CS(=O)(=O)Oc1cccc2c1CN(CC(=O)N1c3ccccc3Oc3ccccc31)CC2` [Compound 191, Methanesulfonic acid 2-(2-oxo-2-phenoxazin-10-yl-ethyl)-1,2,3,4-tetrahydro-isoquinolin-8-yl ester] gave an IC50 of 1.27 µM. `COc1cccc2c1CN(CC(=O)N1CCOc3ccccc31)CC2` [Compound 192, 1-(2,3-Dihydro-benzo[1,4]oxazin-4-yl)-2-(8-methoxy-3,4-dihydro-1H-isoquinolin-2-yl)-ethanone] was tested, and the IC50 was 9.06 µM. `O=C(CN1CCc2ccc(O)cc2C1)N1c2ccccc2Oc2ccccc21` [Compound 193, 2-(7-Hydroxy-3,4-dihydro-1H-isoquinolin-2-yl)-1-phenoxazin-10-yl-ethanone] gave an IC50 of 3.17 µM. `O=C(CN1CCc2cc(O)ccc2C1)N1c2ccccc2Oc2ccccc21` [Compound 194, 2-(6-Hydroxy-3,4-dihydro-1H-isoquinolin-2-yl)-1-phenoxazin-10-yl-ethanone] was tested, and the IC50 was 2.89 µM. For `O=C(CN1CCc2c(O)cccc2C1)N1c2ccccc2Oc2ccccc21` [Compound 195, 2-(5-Hydroxy-3,4-dihydro-1H-isoquinolin-2-yl)-1-phenoxazin-10-yl-ethanone], the IC50 was 1.85 µM. Molecule `COc1cccc2c1CN(CC(=O)N1c3ccccc3Oc3ccccc31)C2` [Compound 196, 2-(4-Methoxy-1,3-dihydro-isoindol-2-yl)-1-phenoxazin-10-yl-ethanone] has an IC50 of 0.93 µM. Molecule `CS(=O)(=O)N(c1cccc2c1CN(CC(=O)N1c3ccccc3Oc3ccccc31)CC2)S(C)(=O)=O` [Compound 197, N-Methanesulfonyl-N-[2-(2-oxo-2-phenoxazin-10-yl-ethyl)-1,2,3,4-tetrahydro-isoquinolin-8-yl]-methanesulfonamide] has an IC50 of 3.83 µM. In the case of `CS(=O)(=O)Nc1cccc2c1CN(CC(=O)N1c3ccccc3Oc3ccccc31)CC2` [Compound 198, N-[2-(2-Oxo-2-phenoxazin-10-yl-ethyl)-1,2,3,4-tetrahydro-isoquinolin-8-yl]-methanesulfonamide], the IC50 is reported as 1.83 µM. For `COc1cccc2c1CN(CC(=O)N1c3ccccc3Oc3cnn(C)c31)CC2` [Compound 199, 2-(8-Methoxy-3,4-dihydro-1H-isoquinolin-2-yl)-1-(1-methyl-1H-4-oxa-1,2,9-triaza-cyclopenta[b]naphthalen-9-yl)-ethanone], the IC50 was 8.26 µM. In the case of `COc1cccc2c1CN(C(C)C(=O)N1c3ccccc3Oc3ccccc31)CC2` (centres unmarked) [Compound 200, 2-(8-Methoxy-3,4-dihydro-1H-isoquinolin-2-yl)-1-phenoxazin-10-yl-propan-1-one], the IC50 is reported as 1.66 µM. `O=C(NCCN1CCc2cccnc2C1)N1c2ccccc2Oc2ccccc21` [Compound 201, Phenoxazine-10-carboxylic acid [2-(5,8-dihydro-6H-[1,7]naphthyridin-7-yl)-ethyl]-amide] showed an IC50 of 6.09 µM. Molecule `O=C(CN1Cc2cccc(O)c2C1)N1c2ccccc2Oc2ccccc21` [Compound 202, 2-(4-Hydroxy-1,3-dihydro-isoindol-2-yl)-1-phenoxazin-10-yl-ethanone] has an IC50 of 0.68 µM. `CS(=O)(=O)Oc1cccc2c1CN(CC(=O)N1c3ccccc3Oc3ccccc31)C2` [Compound 203, Methanesulfonic acid 2-(2-oxo-2-phenoxazin-10-yl-ethyl)-2,3-dihydro-1H-isoindol-4-yl ester] gave an IC50 of 1.11 µM. Molecule `COc1cccc2c1CN(CC(=O)n1c3ccccc3c3ccccc31)CC2` [Compound 204, 1-Carbazol-9-yl-2-(8-methoxy-3,4-dihydro-1H-isoquinolin-2-yl)-ethanone] has an IC50 of 10.7 µM. `COc1cccc2c1CN(CC(=O)N1c3ccccc3OCC1C)CC2` (centres unmarked) [Compound 205, 2-(8-Methoxy-3,4-dihydro-1H-isoquinolin-2-yl)-1-(3-methyl-2,3-dihydro-benzo[1,4]oxazin-4-yl)-ethanone] gave an IC50 of 4.63 µM. Work on `COc1cccc2c1CN(CC(=O)N1c3ccccc3OCC1C(C)(C)C)CC2` (centres unmarked) [Compound 206, 1-(3-tert-Butyl-2,3-dihydro-benzo[1,4]oxazin-4-yl)-2-(8-methoxy-3,4-dihydro-1H-isoquinolin-2-yl)-ethanone] yielded an IC50 of 1.62 µM. For `COc1cccc2c1CN(CC(=O)N1Cc3ccccc3Oc3ccccc31)CC2` [Compound 207, 1-(11H-Dibenzo[b,f][1,4]oxazepin-10-yl)-2-(8-methoxy-3,4-dihydro-1H-isoquinolin-2-yl)-ethanone], the IC50 was 0.94 µM. Work on `CCC1COc2ccccc2N1C(=O)CN1CCc2cccc(OC)c2C1` (centres unmarked) [Compound 208, 1-(3-Ethyl-2,3-dihydro-benzo[1,4]oxazin-4-yl)-2-(8-methoxy-3,4-dihydro-1H-isoquinolin-2-yl)-ethanone] yielded an IC50 of 1.68 µM. Molecule `CS(=O)(=O)Nc1cccc2c1CN(CC(=O)N1c3ccccc3Oc3ccccc31)C2` [Compound 210, N-[2-(2-Oxo-2-phenoxazin-10-yl-ethyl)-2,3-dihydro-1H-isoindol-4-yl]-methanesulfonamide] has an IC50 of 3.46 µM. Work on `CC(C)(C)C1COc2ccccc2N1C(=O)CN1CCc2cccc(O)c2C1` (centres unmarked) [Compound 211, 1-(3-tert-Butyl-2,3-dihydro-benzo[1,4]oxazin-4-yl)-2-(8-hydroxy-3,4-dihydro-1H-isoquinolin-2-yl)-ethanone] yielded an IC50 of 3.03 µM. For `COc1ccc(C2COc3ccccc3N2C(=O)CN2CCc3cccc(OC)c3C2)cc1` (centres unmarked) [Compound 212, 2-(8-Methoxy-3,4-dihydro-1H-isoquinolin-2-yl)-1-[3-(4-methoxy-phenyl)-2,3-dihydro-benzo[1,4]oxazin-4-yl]-ethanone], the IC50 was 5.06 µM. For `COc1ccc(OC)c(C2COc3ccccc3N2C(=O)CN2CCc3cccc(OC)c3C2)c1` (centres unmarked) [Compound 213, 1-[3-(2,5-Dimethoxy-phenyl)-2,3-dihydro-benzo[1,4]oxazin-4-yl]-2-(8-methoxy-3,4-dihydro-1H-isoquinolin-2-yl)-ethanone], the IC50 was 8.24 µM.
